Experimental data as given in paper PMC10766610, “DCAF1-based PROTACs with activity against clinically validated targets overcoming intrinsic- and acquired-degrader resistance” (Nature Communications, 2024).
Entries after “also recorded” stand apart in the source; their conditions may differ.

How the values were obtained:
BRD7 = target: T1, BRD7 (Homo sapiens, UniProt Q9NPI1); assay: BRD7-HiBiT protein abundance luminescence assay in HEK293 cells
T1 sequence (Q9NPI1 1-651): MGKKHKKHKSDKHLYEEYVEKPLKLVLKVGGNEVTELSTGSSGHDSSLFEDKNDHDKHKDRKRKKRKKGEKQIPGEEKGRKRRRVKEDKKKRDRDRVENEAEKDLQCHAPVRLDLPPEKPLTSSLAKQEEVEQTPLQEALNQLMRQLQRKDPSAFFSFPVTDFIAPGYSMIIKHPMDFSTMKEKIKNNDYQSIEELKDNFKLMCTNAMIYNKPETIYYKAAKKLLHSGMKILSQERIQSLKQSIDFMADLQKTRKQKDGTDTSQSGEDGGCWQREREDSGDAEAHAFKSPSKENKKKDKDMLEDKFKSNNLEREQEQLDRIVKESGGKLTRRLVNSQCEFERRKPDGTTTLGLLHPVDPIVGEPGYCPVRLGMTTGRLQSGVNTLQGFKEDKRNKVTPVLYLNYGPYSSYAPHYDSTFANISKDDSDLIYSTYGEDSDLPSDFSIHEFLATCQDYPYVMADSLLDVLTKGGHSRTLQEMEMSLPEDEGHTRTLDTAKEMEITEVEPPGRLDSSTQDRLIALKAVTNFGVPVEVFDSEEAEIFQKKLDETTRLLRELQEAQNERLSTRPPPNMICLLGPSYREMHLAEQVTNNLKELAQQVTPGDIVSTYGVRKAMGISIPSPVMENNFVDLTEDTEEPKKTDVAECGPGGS
Description: HEK293/BRD9-HiBiT pools (PROMEGA # CS3023120) and HEK293/BRD7-HiBiT pools (PROMEGA # CS3023124) were purchased from Promega. We performed clonal selection for HEK293/BRD9-HiBiT cell line using single-cell sorting and screening for HiBiT expression using Nano-Glo HiBiT Lytic Detection System (Promega # N3030). The HEK293/BRD9-HiBiT clone and HEK293/BRD7-HiBiT pool to perform standard HiBiT assays.

HEK293T cells = assay: Whole proteomics profile, DDa-1 vs (13), HEK293T cells; assay type: cell-based, human; conditions: 5 µM DDa-1 vs 5 µM (13), 6 h
Description: HEK293T and TMD8 cells were cultured according to protocol and 3 million cells were plated per sample and recovered for 24 h. The following day, cells were treated with indicated compounds at corresponding concentrations for 6 h. Cells were then harvested and washed 2× with PBS before removing all liquid and snap freezing in liquid nitrogen before sample preparation for proteomics.
TMT-labeled peptides were generated with the iST-NHS kit (PreOmics) and TMT10plex (duplicates per condition) or TMT18plex (triplicates per condition) reagent (Thermo Fisher Scientific). Equal amounts of labeled peptides were pooled and separated on a high pH fractionation system with a water-acetonitrile gradient containing 10 mM ammonium formate, pH 11[88]. Alternating rows of the resulting 72 fractions were pooled into 24 samples, dried and resuspended in water containing 0.1% formic acid.
The LC-MS analysis was carried out on an EASY-nLC 1200 system coupled to an Orbitrap Fusion Lumos Tribrid mass spectrometer (Thermo Fisher Scientific). […]
LC-MS raw files were analyzed with Proteome Discoverer 2.4 (Thermo Fisher Scientific). […] TMT reporter ions of the MS3 spectra were integrated with a 20 ppm tolerance and the reporter ion intensities were used for quantification. […] Protein relative quantification was performed using an in-house developed R (v.3.6) script. […]

TMD8 BTK-GFP/mCh cells = assay: Viability by FSC/SSC gate (flow cytometry) in TMD8 BTK-GFP/mCh cells; assay type: cell-based, human
Description: For flow cytometry measurements, 25,000 exponentially growing TMD8 BTK-GFP/mCh cells were plated in 100 μL of each well of a 96-well plate and grown for 24 h. Cells were then dosed with corresponding compounds and doses from 10 mM DMSO stock for 24 h, after which GFP and mCherry fluorescence was read with a Beckmann Coulter Cytoflex. For competition experiment, both compounds were added at the same time and dosed for 24 h. Cells were gated based on Forward & Side Scatter and selection for Single cells using SSC-A vs. SSC-H. Further, the population of viable cells was defined by the forward & side-scatter characteristics of DMSO-treated cells. […] Effects on viability were measured by the reduction of the percentage of cells included in this viable-population gate with increasing doses of compound tested. Degradation of BTK was calculated based on subtracting background (BG) fluorescence of parental TMD8 signal via (GFP-BG)/(mCherry-BG) of viable cells. Median ratios of three technical (different wells) replicates were used to calculate daily averages. Each compound dose–response was generated via three biological replicates (different days of experiment). Degradation curve parameters (DC50 & Abs. DC50 & max. Deg) were extracted using GraphPad Prism’s 4-parameter logistic curve fitting.
The viability window was determined by measuring the GI50 of viability based on the percentage of cells included in the viable gate and comparing it to the DC50 of degradation. The fold-change difference describing this window is [GI50 Viability / DC50 Degradation], where values above 1 indicate a positive (lower DC50 degradation than AC50 viability) window.

COc1cc(-c2cn(C)c(=O)c3cnccc23)c(OC)cc1CN1CCC(OCCCCCC(=O)N2CCN(c3ccc4c(NCCN)nc(C5(c6ccc(Cl)cc6)CCCCC5)nc4c3)CC2)CC1 [DBr-1]
maximal observed degradation (BRD7), % in brackets (BRD7; 2 h): 65% | DC50 (BRD7; read-out: rel. DC50 (BRD7), 2 h): 0.36 µM

Cc1nc(Nc2ncc(C(=O)Nc3c(C)cccc3Cl)s2)cc(N2CCC(OC3CCN(CCCCCCCC(=O)N4CCN(c5ccc6c(NCCN)nc(C7(c8ccc(Cl)cc8)CCCCC7)nc6c5)CC4)CC3)CC2)n1 [DDa-1]
kinases with significant protein level reduction (LC/MS proteomics) (HEK293T cells): CSK and LIMK2; also recorded: TEC and TNK2

CC(=O)N1CCN(c2ccc3c(NCCN)nc(C4(c5ccc(Cl)cc5)CCCCC4)nc3c2)CC1 [compound 13]
concentrations with loss of viability (TMD8 BTK-GFP/mCh cells; TMD8 BTK-GFP/mCh, 24 h): > 5 µM | concentrations leading to cellular toxicity (TMD8 BTK-GFP/mCh cells; discussion): 5 to 10 µM
